Laboratory results published in patent US4916065A (priority 1988, dated 1990).
Values after ≈ are worked out from the molar mass of the structure shown. Like-named read-outs stand apart in the source and are kept apart here.

Assays:
[1] = system: Staphylococcus aureus 209P; assay: Antibacterial MIC, serial agar dilution; format: cell-based; conditions: aerobic, nutrient agar
[2] = system: Staphylococcus aureus Smith; assay: Antibacterial MIC, serial agar dilution; format: cell-based; conditions: aerobic, nutrient agar
[3] = system: Staphylococcus aureus A20234; assay: Antibacterial MIC, serial agar dilution; format: cell-based; conditions: aerobic, nutrient agar, kanamycin-resistant
[4] = system: Staphylococcus aureus BX1633; assay: Antibacterial MIC, serial agar dilution; format: cell-based; conditions: aerobic, nutrient agar, ampicillin-resistant
[5] = system: Staphylococcus aureus A15097; assay: Antibacterial MIC, serial agar dilution; format: cell-based; conditions: aerobic, nutrient agar, methicillin-resistant
[6] = system: Staphylococcus epidermidis D153; assay: Antibacterial MIC, serial agar dilution; format: cell-based; conditions: aerobic, nutrient agar
[7] = system: Staphylococcus epidermidis A22152; assay: Antibacterial MIC, serial agar dilution; format: cell-based; conditions: aerobic, nutrient agar, kanamycin-resistant
[8] = system: Enterococcus faecalis A9612; assay: Antibacterial MIC, serial agar dilution; format: cell-based; conditions: aerobic, nutrient agar
Micrococcus luteus 1001 = assay: Antibacterial MIC, serial agar dilution; format: cell-based; conditions: aerobic, nutrient agar
[9] = system: Bacillus subtilis PCI-219; assay: Antibacterial MIC, serial agar dilution; format: cell-based; conditions: PCI219, aerobic, nutrient agar
Escherichia coli NIHJ = assay: Antibacterial MIC, serial agar dilution; format: cell-based; conditions: aerobic, nutrient agar
Escherichia coli Juhl = assay: Antibacterial MIC, serial agar dilution; format: cell-based; conditions: aerobic, nutrient agar
Escherichia coli A20665 = assay: Antibacterial MIC, serial agar dilution; format: cell-based; conditions: aerobic, nutrient agar, kanamycin-resistant
Escherichia coli A9624 = assay: Antibacterial MIC, serial agar dilution; format: cell-based; conditions: aerobic, nutrient agar, kanamycin-resistant
[10] = system: Escherichia coli A20341-1; assay: Antibacterial MIC, serial agar dilution; format: cell-based; conditions: A203411, aerobic, nutrient agar, ampicillin-resistant
[11] = system: Enterobacter cloacae A9659; assay: Antibacterial MIC, serial agar dilution; format: cell-based; conditions: aerobic, nutrient agar
[12] = system: Klebsiella pneumoniae D11; assay: Antibacterial MIC, serial agar dilution; format: cell-based; conditions: aerobic, nutrient agar
[13] = system: Klebsiella pneumoniae A20680; assay: Antibacterial MIC, serial agar dilution; format: cell-based; conditions: aerobic, nutrient agar, kanamycin-resistant
[14] = system: Pseudomonas aeruginosa A9930; assay: Antibacterial MIC, serial agar dilution; format: cell-based; conditions: aerobic, nutrient agar
Proteus vulgaris A9436 = assay: Antibacterial MIC, serial agar dilution; format: cell-based; conditions: aerobic, nutrient agar
Proteus mirabilis A9554 = assay: Antibacterial MIC, serial agar dilution; format: cell-based; conditions: aerobic, nutrient agar
[15] = system: Morganella morganii A9553; assay: Antibacterial MIC, serial agar dilution; format: cell-based; conditions: aerobic, nutrient agar
[16] = system: Serratia marcescens A20222; assay: Antibacterial MIC, serial agar dilution; format: cell-based; conditions: aerobic, nutrient agar
B16-F10 = assay: In vitro cytotoxicity; format: cell-based, murine; conditions: Mus musculus, 72 hours, neutral red, 540 nm
Moser = assay: In vitro cytotoxicity; format: cell-based; conditions: Homo sapiens; 72 hours, neutral red, 540 nm
HCT-116 = assay: In vitro cytotoxicity; format: cell-based; conditions: Homo sapiens, 72 hours, neutral red, 540 nm
[17] = system: DNA synthesis in L1210 cells; assay: Inhibition of macromolecule synthesis in L1210 leukemia; format: cell-based; conditions: Mus musculus; 3H-thymidine, L1210, 15 min + 60 min, 37° C.
[18] = system: RNA synthesis in L1210 cells; assay: as above; format: cell-based; conditions: Mus musculus; 14C-uridine, L1210, 15 min + 60 min, 37° C.
[19] = system: Protein synthesis in L1210 cells; assay: as above; format: cell-based; conditions: Mus musculus; 3H-leucine, L1210, 15 min + 60 min, 37° C.
[20] = system: Propionibacterium acnes A21933; assay: Antibacterial MIC, serial agar dilution; format: cell-based; conditions: Cutibacterium acnes, anaerobic, GAM agar
Canidia albicans IAM4888 = assay: Antifungal MIC, Sabouraud dextrose agar; format: cell-based
[21] = system: Cryptococcus neoformans D49; assay: Antifungal MIC, Sabouraud dextrose agar; format: cell-based
[22] = system: Cryptococcus neoformans IAM4514; assay: Antifungal MIC, Sabouraud dextrose agar; format: cell-based
[23] = system: Trichophyton mentagrophytes D155; assay: Antifungal MIC, Sabouraud dextrose agar; format: cell-based
[24] = system: Trichophyton mentagrophytes #4329; assay: Antifungal MIC, Sabouraud dextrose agar; format: cell-based
Mucor spinosus IF05317 = assay: Antifungal MIC, Sabouraud dextrose agar; format: cell-based
[25] = system: aerobic and anaerobic bacteria; format: cell-based
[26] = system: Staphylococcus aureus Smith; format: in vivo, mice; conditions: single, im; for No. of survivor/tested: 5 days
Procedure: Mice were challenged intraperitoneally with 100 times the lethal dose of the pathogen in a 5% suspension of hog gastric mucin (American laboratory, Omaha, Nebr.). BU-3420T was administered to mice intramuscularly just before the bacterial challenge.

P388 = assay: In vitro cytotoxicity; format: cell-based, murine; conditions: Mus musculus, 72 hours, viable cell count
Procedure: (§1) On the other hand, the cytotoxic activities against P388 and P388/VCR cells were determined by counting the number of viable cells.

P388/VCR = assay: In vitro cytotoxicity
Procedure: as §1

P388 leukemia = assay: Antitumor activity against P388 leukemia (ip); format: in vivo, mice; conditions: for Body weight change on day 4 / MST (median survival time) / T/C: QD × 3, ip
Solubility = format: physicochemical

With `NC[C@H]1O[C@H](O[C@H]2[C@H](O)[C@@H](O[C@H]3O[C@H](CO)[C@@H](O)[C@H](N)[C@H]3O)[C@H](N)C[C@@H]2N)[C@H](O)[C@@H](O)[C@@H]1O` [Kanamycin A, reference compound] the MIC [1] was 200 ng/mL (≈ 0.413 µM), the MIC [2] was 800 ng/mL (≈ 1.65 µM) and the MIC [3] was 100000 ng/mL (≈ 206 µM). It also gave an MIC [4] of 800 ng/mL (≈ 1.65 µM), an MIC [5] of 800 ng/mL (≈ 1.65 µM) and an MIC [6] of 400 ng/mL (≈ 0.826 µM). For the same molecule, the MIC [7] was 12500 ng/mL (≈ 25.8 µM), the MIC [8] was 25000 ng/mL (≈ 51.6 µM) and the MIC (Micrococcus luteus 1001) was 3100 ng/mL (≈ 6.4 µM). The MIC [9] was 200 ng/mL (≈ 0.413 µM), the MIC (Escherichia coli NIHJ) was 1600 ng/mL (≈ 3.3 µM) and the MIC (Escherichia coli Juhl) was 6300 ng/mL (≈ 13 µM). For the same molecule, the MIC (Escherichia coli A20665) was > 100000 ng/mL, the MIC (Escherichia coli A9624) was > 100000 ng/mL and the MIC [10] was 6300 ng/mL (≈ 13 µM). For the same molecule, the MIC [11] was 3100 ng/mL (≈ 6.4 µM), the MIC [12] was 400 ng/mL (≈ 0.826 µM) and the MIC [13] was > 100000 ng/mL. For the same molecule, the MIC [14] was 25000 ng/mL (≈ 51.6 µM), the MIC (Proteus vulgaris A9436) was 400 ng/mL (≈ 0.826 µM) and the MIC (Proteus mirabilis A9554) was 3100 ng/mL (≈ 6.4 µM). For the same molecule, the MIC [15] was 3100 ng/mL (≈ 6.4 µM) and the MIC [16] was 6300 ng/mL (≈ 13 µM).
For `CO[C@@]12[C@H](COC(N)=O)C3=C(C(=O)C(C)=C(N)C3=O)N1C[C@@H]1N[C@@H]12` [Mitomycin C, reference compound], the IC50 (B16-F10) was 500 ng/mL (≈ 1.5 µM), the IC50 (Moser) was 1200 ng/mL (≈ 3.59 µM) and the IC50 (HCT-116) was 800 ng/mL (≈ 2.39 µM). For the same molecule, the IC50 [17] was 1700 ng/mL, the IC50 [18] was > 100000 ng/mL and the IC50 [19] was > 100000 ng/mL.
With `COC1=C(C(=O)O)C(C)C23OC24c2cc(O)c5c(c2NC3C#C/C=C\C#CC14)C(=O)c1c(O)ccc(O)c1C5=O` (stereo not drawn) [BU-3420T] the MIC [1] was 0.013 ng/mL (≈ 2.42e-05 µM), the MIC [7] was 0.05 ng/mL (≈ 9.3e-05 µM) and the MIC [8] was 0.4 ng/mL (≈ 0.000744 µM). It also gave an MIC (Micrococcus luteus 1001) of 0.8 ng/mL (≈ 0.00149 µM), an MIC (Escherichia coli NIHJ) of 50 ng/mL (≈ 0.093 µM) and an MIC (Escherichia coli Juhl) of 50 ng/mL (≈ 0.093 µM). For the same molecule, the MIC (Escherichia coli A20665) was 50 ng/mL (≈ 0.093 µM), the MIC (Escherichia coli A9624) was 50 ng/mL (≈ 0.093 µM) and the MIC [11] was 50 ng/mL (≈ 0.093 µM). It also gave an MIC (Proteus mirabilis A9554) of 13 ng/mL (≈ 0.0242 µM), an MIC [20] of 13 ng/mL (≈ 0.0242 µM) and an MIC (Canidia albicans IAM4888) of 12500 ng/mL (≈ 23.3 µM). The MIC [21] was 12500 ng/mL (≈ 23.3 µM), the MIC [22] was 12500 ng/mL (≈ 23.3 µM) and the MIC [23] was 12500 ng/mL (≈ 23.3 µM). The MIC [24] was 12500 ng/mL (≈ 23.3 µM), the MIC (Mucor spinosus IF05317) was 12500 ng/mL (≈ 23.3 µM) and the “activity against Gram-negative organisms” value ([25]; Gram-negative organisms, versus Gram-positive) was “a little less susceptible”. The “activity against Gram-positive aerobic bacteria” value ([25]; Gram-positive aerobic bacteria) was “intensely potent activity”, the “activity against anaerobic Gram-positive and negative bacteria versus clindamycin” value ([25]; anaerobic bacteria) was “much more active than clindamycin” and the “activity against certain kanamycin- and clindamycin-resistant bacteria” value ([25]; kanamycin- and clindamycin-resistant bacteria) was “susceptible to both compounds”. For the same molecule, the No. of survivor/tested ([26]; 0.01 mg/kg) was 0/5, the No. of survivor/tested ([26]; 0.04 mg/kg) was 0/5 and the ED50 ([26]; Staphylococcus aureus, 120 h, just before challenge, 5 days observation, read-out: PD50 (median protective dose)) was 0.13 mg/kg. It also gave an IC50 (B16-F10) of 5.2 ng/mL (≈ 0.00967 µM), an IC50 (P388) of 0.4 ng/mL (≈ 0.000744 µM) and an IC50 (P388/VCR; Mus musculus, P388/VCR, 72 h) of 0.4 ng/mL (≈ 0.000744 µM). The “cytotoxicity against VCR-sensitive versus resistant P388 cells” value (P388/VCR; P388 versus P388/VCR) was “same cytotoxicities against both VCR-sensitive and resistant P388 cells”, the IC50 (Moser) was 0.85 ng/mL (≈ 0.00158 µM) and the IC50 (HCT-116) was 0.42 ng/mL (≈ 0.000781 µM). For the same molecule, the IC50 [17] was 18 ng/mL, the IC50 [18] was 9200 ng/mL and the IC50 [19] was 1500 ng/mL. The “Body weight change on day 4” value (P388 leukemia; 0.5 mg/kg/day) was 0.0 g, the “MST (median survival time)” value (P388 leukemia; 0.5 mg/kg/day) was 13.0 days and the T/C (P388 leukemia; 0.5 mg/kg/day) was 130%. The “Body weight change on day 4” value (P388 leukemia; 1.0 mg/kg/day) was -0.5 g, the “MST (median survival time)” value (P388 leukemia; 1.0 mg/kg/day) was 13.5 days and the T/C (P388 leukemia; 1.0 mg/kg/day) was 135%. For the same molecule, the “maximum T/C value” (P388 leukemia; P388, ip, QD × 3) was 135%, the solubility (Solubility; chloroform, ethyl acetate, methanol and ethanol) was “slightly soluble” and the solubility (Solubility; dimethyl sulfoxide, dimethylformamide and dioxane) was “soluble”. For the same molecule, the solubility (Solubility; water and n-hexane) was “insoluble”.
